“And” between values parts separate entries of the source, which are not always exact repeats. Equal entries are not always repeated. One block for each molecule: values may come before it.
Key:
PI3Kα = target: T1, PI3Kα (Homo sapiens, UniProt P42336); assay: KinaseGLO luminescent PI3-kinase assay, PI3Kα; format: biochemical
T1 construct: purchased Invitrogen or Millipore
Method: (§1) Compound Preparation: KinaseGLO assay: 30× stocks of inhibitors were prepared in DMSO. A 10 mM master stock was prepared and all other stocks were generated by serial dilution of this master stock in DMSO. The final concentration of DMSO in the kinase reaction was 3.3% (v/v).
PI3-Kinase Assay: The KinaseGLO® Luminescent Kinase Assay (Promega) is a luciferin-luciferase based luminescent assay that utilizes a proprietary thermostable luciferase to quantify the ATP remaining in a solution after a kinase reaction. The luminescent signal generated using KinaseGLO® directly correlates with ATP concentration, and therefore inversely correlates with kinase activity.
PI3K enzyme sample was thawed and diluted to 100 ng/μL in enzyme dilution buffer (50 mM HEPES, pH7.5, 3.0 mM MgCl2, 1.0 mM EGTA) and stored on ice. PI3Kα enzyme was diluted to a final concentration of 1 ng/μL in reaction buffer (for PI3Kα; 50 mM HEPES, pH7.5, 100 mM NaCl, 2.0 mM DTT, 3.0 mM MgCl2, 1.0 mM EGTA, 10 μM ATP) and gently mixed. 25 μL of this kinase reaction was then aliquoted into test wells in a Microfluor2 white 96-well plate (Thermo Scientific). As a preincubation step, 1 μl of 30× compound dilutions was added to the appropriate test wells to generate a ten point dose-response ranging from 0.0 μM-10 μM inhibitor. The enzyme-inhibitor mixture was then incubated for 30 minutes at 4° C. After this preincubation, […] (50 μM final concentration) was added to each test well to initiate the kinase reaction. Reactions were incubated at room temperature for 2 hours with moderate shaking. The KinaseGLO® luminescent reagent (Promega) was prepared according to the manufacturer's instructions. Both the KinaseGLO® buffer and substrate were allowed to thaw and equilibrate at room temperature for two hours prior to mixing and use. The PI3-kinase reaction was terminated by the addition of 30 μL of reconstituted KinaseGLO® reagent to each reaction well and then incubated in the dark for 10 minutes at room temperature. Luminescent signal was detected using a SpectraMax M5 (Molecular Devices). Maximal luminescence (no PI3K activity/maximal PI3K inhibition) was determined from reaction buffer plus SC-PI substrate only controls. The minimal signal (maximal PI3K activity) was determined by the 0.0 μM compound (DMSO only) control. IC50 values were calculated via non-linear regression using GraphPad Prism data analysis software.
Compounds were assayed against the Class I PI3Kα, PI3Kβ, PI3Kγ, PI3Kδ, PI3Kα(H1047R) and PI3Kα(E545K) in the KinaseGLO assay as described in Example 2, and against the Class IV PI3K mTOR in the radiometric assay. IC50 values (μM) were determined using 8-10 point half-log dose dilutions and calculated via nonlinear regression analysis using Graphpad Prism data analysis software.

MELK = target: T2, MELK (Homo sapiens, UniProt Q14680); assay: MELK kinase assay (KinaseGLO); format: biochemical
T2 construct: purchased Invitrogen or Millipore
Method: as §1
MELK kinase assay: The ability of compounds to inhibit MELK was also determined using the KinaseGLO assay. Briefly, MELK enzymes was thawed and diluted to a final concentration of 2.64 ng/μL in reaction buffer (50 mM HEPES, pH7.5, 100 mM NaCl, 2.0 mM DTT, 3.0 mM MgCl2, 1.0 mM EGTA, 10 μM ATP). 19 μl of this kinase reaction mixture was aliquoted into test wells (50 ng MELK/well) in a Microfluor2 white 96-well plate (Thermo Scientific). As a preincubation step, 1 μl of 30× compound dilutions was added to the appropriate test wells to generate a ten point dose-response ranging from 0.0 μM-10 μM inhibitor, and incubated for 15 minutes at 4° C. The reaction was started by addition of 10 μL of 150 μM ZIPtide peptide substrate resuspended in reaction buffer (50 μM final concentration of ZIPtide). Reactions were incubated at room temperature for 2 hours prior to addition of 30 μL of KinaseGLO reagent and development as described. Maximal luminescence (no MELK activity/maximal MELK inhibition) was determined from reaction buffer plus peptide substrate only controls. The minimal signal (maximal MELK activity) was determined by the 0.0 μM compound (DMSO only) control. IC50 values were calculated via non-linear regression using GraphPad Prism data analysis software. […]
(§2) Compounds of the invention were assayed against the select kinases using the KinaseGLO assay (MELK) or the radiometric assay (PIM, TRKC, PDGFRα(D842V), MNK1 and mTOR). IC50 values were determined using 8-10 point half-log dose dilutions and calculated via nonlinear regression analysis using Graphpad Prism data analysis software.

PDGFRα(D842V) = PDGFRα(D842V) (Homo sapiens, UniProt P16234, D842V); assay: Radiometric HotSpot kinase assay, PDGFRα(D842V); format: biochemical
Method: (§3) Kinase Profiling: The inhibitory activity of the PI3K inhibitor compounds of the invention against 250 protein kinases was determined via the radiometric HotSpot Kinase Profiling (Reaction Biology Corporation, Malvern, Pa.). Compounds were profiled at a final concentration of 1 μM compound against recombinant protein kinases in the presence of 10 μM ATP and data were expressed as percent inhibition. IC50 and/or percent inhibition at 1 μM compound values were determined for select compounds against a subset of kinases (MELK, MNK1, MNK2, mTOR, PIM-1. TRKC, and PDGFRα(D842V)).
as §2

TRKC = TRKC (Homo sapiens, UniProt Q16288); assay: Radiometric HotSpot kinase assay, TRKC; format: biochemical; conditions: 1 μM compound, 10 μM ATP
Method: as §3, §2

PIM-1 = PIM-1 (Homo sapiens, UniProt P11309); assay: Radiometric HotSpot kinase assay, PIM-1; format: biochemical; conditions: 1 μM compound, 10 μM ATP
Method: as §3, §2

[1] = test system: HCT116 colorectal carcinoma cells; assay: Caspase-GLO 3/7 assay, HCT116; format: cell-based; conditions: Homo sapiens, HCT-116, 24 hours, CaspaseGLO
Method: Caspase-GLO 3/7 Assay: To determine the ability of the PI3K inhibitor compounds of the invention to induce programmed cell death (apoptosis), caspase activity was monitored as an indicator of apoptosis. Human HCT116 colorectal carcinoma and PANC-1 pancreatic carcinoma cells were plated at 2000-8000 cells per well in white 96-well microplates and allowed to attach overnight. The following day the medium was removed by aspiration and the cells were washed once with 200 μL of DMEM containing 0.5% (v/v) FBS (assay medium). The cells were then incubated in 100 μL of assay medium containing increasing concentrations of the PI3K inhibitor compounds (from 0.003 μM to 10.0 μM in half-log dilutions) for 24 to 72 hours. Caspase activity was detected using the Caspase-GLO 3/7 assay (Promega) according to the manufacturer's instructions and measured on a Spectramax M5 multi-detection microplate reader (Molecular Devices Corp.). EC50 values were calculated via non-linear regression using GraphPad Prism data analysis software.
HCT116 cells were treated overnight with a pyrazoloquinoline compound of the invention, or with a commercially available dual PI3K(α,β,δ,γ)/mTOR inhibitor, or with a commercially available PI3K(α,β,δ,γ)-only inhibitor at concentrations of 0.5, 1.0 and 5.0 μM.

PDGFRα(D842V), sequence (P16234 24-1089 D842V): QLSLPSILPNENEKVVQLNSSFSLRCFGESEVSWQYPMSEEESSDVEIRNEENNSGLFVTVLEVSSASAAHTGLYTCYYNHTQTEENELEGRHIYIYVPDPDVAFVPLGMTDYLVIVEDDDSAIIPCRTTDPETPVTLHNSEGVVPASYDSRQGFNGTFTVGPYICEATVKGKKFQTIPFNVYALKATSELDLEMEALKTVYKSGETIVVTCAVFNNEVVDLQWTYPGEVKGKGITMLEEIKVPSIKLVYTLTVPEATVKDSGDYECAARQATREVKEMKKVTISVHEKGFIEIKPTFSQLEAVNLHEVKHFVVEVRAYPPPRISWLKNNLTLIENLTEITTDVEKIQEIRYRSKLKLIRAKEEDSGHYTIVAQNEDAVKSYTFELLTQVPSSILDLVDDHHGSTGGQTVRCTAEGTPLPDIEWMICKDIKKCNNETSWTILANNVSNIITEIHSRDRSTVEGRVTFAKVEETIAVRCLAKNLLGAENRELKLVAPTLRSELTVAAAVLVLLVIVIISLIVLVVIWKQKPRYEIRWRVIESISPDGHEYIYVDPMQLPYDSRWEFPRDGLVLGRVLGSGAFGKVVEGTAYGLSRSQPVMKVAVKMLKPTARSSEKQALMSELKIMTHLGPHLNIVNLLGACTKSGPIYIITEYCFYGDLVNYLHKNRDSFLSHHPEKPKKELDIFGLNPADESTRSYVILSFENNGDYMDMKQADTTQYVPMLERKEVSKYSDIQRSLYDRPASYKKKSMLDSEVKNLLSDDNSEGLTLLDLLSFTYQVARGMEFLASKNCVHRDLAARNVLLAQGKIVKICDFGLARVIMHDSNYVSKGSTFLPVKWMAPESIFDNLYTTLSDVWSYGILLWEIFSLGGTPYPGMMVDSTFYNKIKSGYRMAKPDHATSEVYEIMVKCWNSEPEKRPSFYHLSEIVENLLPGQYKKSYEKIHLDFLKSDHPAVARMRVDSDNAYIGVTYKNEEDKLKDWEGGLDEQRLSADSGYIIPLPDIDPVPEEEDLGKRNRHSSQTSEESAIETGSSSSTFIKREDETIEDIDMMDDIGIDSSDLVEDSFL
TRKC, sequence (Q16288 32-839): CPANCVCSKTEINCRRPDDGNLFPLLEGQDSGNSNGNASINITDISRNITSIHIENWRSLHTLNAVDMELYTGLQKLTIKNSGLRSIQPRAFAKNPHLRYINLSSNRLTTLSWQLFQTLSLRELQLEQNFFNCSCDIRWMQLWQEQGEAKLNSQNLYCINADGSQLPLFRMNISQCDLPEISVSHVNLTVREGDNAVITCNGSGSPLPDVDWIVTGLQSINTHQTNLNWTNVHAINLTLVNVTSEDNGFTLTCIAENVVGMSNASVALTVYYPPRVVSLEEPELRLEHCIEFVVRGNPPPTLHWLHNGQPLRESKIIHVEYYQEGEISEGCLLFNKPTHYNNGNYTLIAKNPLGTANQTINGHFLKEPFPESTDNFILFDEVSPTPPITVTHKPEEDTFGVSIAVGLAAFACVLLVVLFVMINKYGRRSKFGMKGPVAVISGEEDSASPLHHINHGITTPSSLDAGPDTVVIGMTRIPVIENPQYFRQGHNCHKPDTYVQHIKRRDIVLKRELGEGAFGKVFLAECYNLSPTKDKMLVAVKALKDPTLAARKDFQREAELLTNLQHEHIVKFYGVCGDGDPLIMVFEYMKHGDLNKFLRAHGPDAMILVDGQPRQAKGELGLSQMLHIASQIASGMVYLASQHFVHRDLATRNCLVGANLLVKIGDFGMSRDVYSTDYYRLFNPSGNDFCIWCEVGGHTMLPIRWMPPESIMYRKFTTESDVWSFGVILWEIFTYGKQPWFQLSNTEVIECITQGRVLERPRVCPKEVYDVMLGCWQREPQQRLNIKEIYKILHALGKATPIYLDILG
PIM-1, sequence (P11309 whole entry): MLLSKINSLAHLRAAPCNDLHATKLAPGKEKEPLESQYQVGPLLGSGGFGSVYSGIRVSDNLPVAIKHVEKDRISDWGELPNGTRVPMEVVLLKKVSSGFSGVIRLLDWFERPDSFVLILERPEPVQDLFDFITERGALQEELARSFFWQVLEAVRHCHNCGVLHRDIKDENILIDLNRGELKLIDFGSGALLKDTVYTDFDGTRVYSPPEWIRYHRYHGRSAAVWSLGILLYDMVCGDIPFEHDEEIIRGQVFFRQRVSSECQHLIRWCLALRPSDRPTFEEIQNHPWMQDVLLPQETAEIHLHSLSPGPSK
T1 sequence (P42336 whole entry): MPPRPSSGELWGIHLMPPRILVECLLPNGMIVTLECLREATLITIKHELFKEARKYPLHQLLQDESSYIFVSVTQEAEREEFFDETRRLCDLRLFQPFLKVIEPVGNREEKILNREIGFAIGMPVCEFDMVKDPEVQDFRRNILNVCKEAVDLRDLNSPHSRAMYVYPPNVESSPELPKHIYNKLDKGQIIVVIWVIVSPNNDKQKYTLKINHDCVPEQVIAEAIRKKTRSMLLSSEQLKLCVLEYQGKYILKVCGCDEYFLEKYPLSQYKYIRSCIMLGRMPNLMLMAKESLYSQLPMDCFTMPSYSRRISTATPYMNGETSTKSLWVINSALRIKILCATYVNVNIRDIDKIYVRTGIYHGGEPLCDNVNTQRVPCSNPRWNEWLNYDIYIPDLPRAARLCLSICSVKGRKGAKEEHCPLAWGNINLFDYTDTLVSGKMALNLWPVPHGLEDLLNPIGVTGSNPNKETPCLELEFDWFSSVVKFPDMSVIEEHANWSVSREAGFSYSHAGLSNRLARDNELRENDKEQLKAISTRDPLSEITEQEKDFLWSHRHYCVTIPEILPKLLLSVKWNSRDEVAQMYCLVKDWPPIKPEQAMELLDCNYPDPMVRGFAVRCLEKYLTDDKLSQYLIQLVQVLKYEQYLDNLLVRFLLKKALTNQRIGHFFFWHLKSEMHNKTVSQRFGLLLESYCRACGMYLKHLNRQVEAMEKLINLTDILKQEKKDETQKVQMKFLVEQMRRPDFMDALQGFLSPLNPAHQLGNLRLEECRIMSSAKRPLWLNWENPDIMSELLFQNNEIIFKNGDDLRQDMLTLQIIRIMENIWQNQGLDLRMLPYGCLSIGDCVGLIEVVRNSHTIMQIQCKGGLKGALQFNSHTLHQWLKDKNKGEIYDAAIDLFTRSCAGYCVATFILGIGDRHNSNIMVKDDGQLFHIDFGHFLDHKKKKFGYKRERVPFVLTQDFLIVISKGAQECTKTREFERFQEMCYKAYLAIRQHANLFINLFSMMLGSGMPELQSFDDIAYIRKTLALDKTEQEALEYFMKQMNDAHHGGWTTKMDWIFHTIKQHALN
T1 sequence (P27986 whole entry partner): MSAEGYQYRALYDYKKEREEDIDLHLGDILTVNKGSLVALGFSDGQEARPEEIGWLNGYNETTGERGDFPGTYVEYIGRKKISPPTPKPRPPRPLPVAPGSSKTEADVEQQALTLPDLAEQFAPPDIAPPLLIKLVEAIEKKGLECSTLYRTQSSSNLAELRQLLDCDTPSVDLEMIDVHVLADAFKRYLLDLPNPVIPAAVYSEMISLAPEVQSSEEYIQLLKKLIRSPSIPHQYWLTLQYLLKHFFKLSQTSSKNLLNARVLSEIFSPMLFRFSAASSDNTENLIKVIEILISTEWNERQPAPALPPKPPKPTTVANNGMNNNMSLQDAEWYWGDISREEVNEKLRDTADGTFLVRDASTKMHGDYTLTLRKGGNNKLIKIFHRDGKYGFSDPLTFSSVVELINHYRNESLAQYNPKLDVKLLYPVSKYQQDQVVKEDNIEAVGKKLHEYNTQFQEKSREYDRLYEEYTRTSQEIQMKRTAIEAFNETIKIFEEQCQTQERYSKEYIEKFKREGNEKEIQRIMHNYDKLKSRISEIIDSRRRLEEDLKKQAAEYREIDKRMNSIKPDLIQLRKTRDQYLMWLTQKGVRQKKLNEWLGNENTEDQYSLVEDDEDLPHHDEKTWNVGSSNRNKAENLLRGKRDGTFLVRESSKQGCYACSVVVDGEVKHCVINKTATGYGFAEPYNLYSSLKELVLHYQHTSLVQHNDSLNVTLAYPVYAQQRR
T2 sequence (Q14680 whole entry): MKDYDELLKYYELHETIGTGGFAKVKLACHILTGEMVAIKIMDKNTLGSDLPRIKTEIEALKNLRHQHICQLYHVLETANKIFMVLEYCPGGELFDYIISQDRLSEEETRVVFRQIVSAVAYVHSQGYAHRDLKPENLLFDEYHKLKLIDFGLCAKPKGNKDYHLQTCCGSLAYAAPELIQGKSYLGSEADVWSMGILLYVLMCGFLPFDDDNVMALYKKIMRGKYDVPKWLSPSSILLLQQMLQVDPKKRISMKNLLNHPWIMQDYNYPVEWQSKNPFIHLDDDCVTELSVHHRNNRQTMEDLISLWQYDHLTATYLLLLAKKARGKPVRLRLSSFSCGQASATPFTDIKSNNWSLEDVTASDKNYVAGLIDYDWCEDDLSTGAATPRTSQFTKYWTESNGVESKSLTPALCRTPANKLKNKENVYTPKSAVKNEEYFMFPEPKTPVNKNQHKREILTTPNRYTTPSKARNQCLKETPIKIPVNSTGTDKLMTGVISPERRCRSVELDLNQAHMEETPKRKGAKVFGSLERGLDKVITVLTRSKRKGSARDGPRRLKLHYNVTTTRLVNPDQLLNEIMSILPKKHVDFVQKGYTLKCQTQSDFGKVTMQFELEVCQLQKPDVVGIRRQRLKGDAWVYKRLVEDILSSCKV

IC50 (MELK): > 30 nM
IC50 (PDGFRα(D842V)): > 100 nM
inhibition at 1 µM (TRKC): ≥ 70%
inhibition at 1 µM (PIM-1): 50 to 60%
Structure (SMILES): CC(C)(C#N)c1ccc(-c2n[nH]c3cnc4ccc(-c5cccc(Cl)c5)cc4c23)cc1 [Compound 1113, 2-(4-(8-(3-chlorophenyl)-3H-pyrazolo[3,4-c]quinolin-1-yl)phenyl)-2-methylpropanenitrile]

IC50 (MELK): > 30 nM
IC50 (PDGFRα(D842V)): > 1000 nM
inhibition at 1 µM (TRKC): > 60%
inhibition at 1 µM (PIM-1): 50 to 60%
Structure (SMILES): Cc1cccc(-c2ccc3ncc4[nH]nc(-c5ccc(C(C)(C)C#N)cc5)c4c3c2)c1 [Compound 1123, 2-methyl-2-(4-(8-m-tolyl-3H-pyrazolo[3,4-c]quinolin-1-yl)phenyl)propanenitrile]

IC50 (MELK): > 30 nM
inhibition at 1 µM (TRKC): > 60%
Structure (SMILES): Cc1ccccc1-c1ccc2ncc3[nH]nc(-c4ccc(C(C)(C)C#N)cc4)c3c2c1 [Compound 1124, 2-methyl-2-(4-(8-o-tolyl-3H-pyrazolo[3,4-c]quinolin-1-yl)phenyl)propanenitrile]

IC50 (MELK): > 30 nM
IC50 (PDGFRα(D842V)): > 1000 nM
inhibition at 1 µM (TRKC): ≥ 75%
inhibition at 1 µM (PIM-1): 60 to 85%
Structure (SMILES): CC(C)(C#N)c1ccc(-c2n[nH]c3cnc4ccc(-c5ccccc5)cc4c23)cc1 [Compound 1125, 2-methyl-2-(4-(8-phenyl-3H-pyrazolo[3,4-c]quinolin-1-yl)phenyl)propanenitrile]

IC50 (MELK): > 30 nM
Structure (SMILES): Cc1ccc(-c2ccc3ncc4[nH]nc(-c5ccc(C(C)(C)C#N)cc5)c4c3c2)cc1 [Compound 1126, 2-methyl-2-(4-(8-p-tolyl-3H-pyrazolo[3,4-c]quinolin-1-yl)phenyl)propanenitrile]

Further lines, the molecule ahead of its results:

Structure (SMILES): CC(C)(C#N)c1ccc(-c2n[nH]c3cnc4ccc(-c5cncnc5)cc4c23)cc1 [Compound 1108, 2-methyl-2-(4-(8-(pyrimidin-5-yl)-3H-pyrazolo[3,4-c]quinolin-1-yl)phenyl)propanenitrile]
IC50 (PI3Kα): < 10 nM
IC50 (MELK): 12 to 20 nM and > 30 nM
IC50 (PDGFRα(D842V)): > 100 nM
inhibition at 1 µM (TRKC): > 97%
inhibition at 1 µM (PIM-1): 60 to 85%

Structure (SMILES): CC(C)(C#N)c1ccc(-c2n[nH]c3cnc4ccc(-c5ccn6ncnc6c5)cc4c23)cc1 [Compound 1111]
IC50 (PI3Kα): > 20 nM
IC50 (MELK): 20 to 30 nM
inhibition at 1 µM (TRKC): > 97%
inhibition at 1 µM (PIM-1): > 95%

Structure (SMILES): CC(C)(C#N)c1ccc(-c2n[nH]c3cnc4ccc(-c5cc(F)cc(F)c5)cc4c23)cc1 [Compound 1112, 2-(4-(8-(3,5-difluorophenyl)-3H-pyrazolo[3,4-c]quinolin-1-yl)phenyl)-2-methylpropanenitrile]
IC50 (MELK): > 30 nM
IC50 (PDGFRα(D842V)): > 100 nM
inhibition at 1 µM (TRKC): ≥ 75%

Structure (SMILES): CC(C)(C#N)c1ccc(-c2n[nH]c3cnc4ccc(-c5ccc6c(c5)CC=N6)cc4c23)cc1 [Compound 1114, 2-(4-(8-(3H-indol-5-yl)-3H-pyrazolo[3,4-c]quinolin-1-yl)phenyl)-2-methylpropanenitrile]
IC50 (PI3Kα): > 20 nM
IC50 (MELK): > 30 nM
IC50 (PDGFRα(D842V)): > 100 nM

Structure (SMILES): COc1cccc(-c2ccc3ncc4[nH]nc(-c5ccc(C(C)(C)C#N)cc5)c4c3c2)c1 [Compound 1115, 2-(4-(8-(3-methoxyphenyl)-3H-pyrazolo[3,4-c]quinolin-1-yl)phenyl)-2-methylpropanenitrile]
IC50 (MELK): > 30 nM
IC50 (PDGFRα(D842V)): > 1000 nM
inhibition at 1 µM (TRKC): > 60%
inhibition at 1 µM (PIM-1): 60 to 85%

Structure (SMILES): CC(C)(C#N)c1ccc(-c2n[nH]c3cnc4ccc(-c5ccc(F)cc5)cc4c23)cc1 [Compound 1116, 2-(4-(8-(4-fluorophenyl)-3H-pyrazolo[3,4-c]quinolin-1-yl)phenyl)-2-methylpropanenitrile]
IC50 (MELK): > 30 nM
inhibition at 1 µM (TRKC): ≥ 75%
inhibition at 1 µM (PIM-1): 60 to 85%

Structure (SMILES): COc1ccc(-c2ccc3ncc4[nH]nc(-c5ccc(C(C)(C)C#N)cc5)c4c3c2)cc1 [Compound 1117, 2-(4-(8-(4-methoxyphenyl)-3H-pyrazolo[3,4-c]quinolin-1-yl)phenyl)-2-methylpropanenitrile]
IC50 (MELK): > 30 nM
inhibition at 1 µM (TRKC): > 50%
inhibition at 1 µM (PIM-1): 60 to 85%

Structure (SMILES): COc1ccc(-c2ccc3ncc4[nH]nc(-c5ccc(C(C)(C)C#N)cc5)c4c3c2)cn1 [Compound 1118, 2-(4-(8-(6-methoxypyridin-3-yl)-3H-pyrazolo[3,4-c]quinolin-1-yl)phenyl)-2-methylpropanenitrile]
IC50 (PI3Kα): < 10 nM
IC50 (MELK): > 30 nM
IC50 (PDGFRα(D842V)): > 1000 nM

Structure (SMILES): CC(C)(C#N)c1ccc(-c2n[nH]c3cnc4ccc(-c5cccc(Nc6ccccn6)c5)cc4c23)cc1 [Compound 1120, 2-methyl-2-(4-(8-(3-(pyridin-2-ylamino)phenyl)-3H-pyrazolo[3,4-c]quinolin-1-yl)phenyl)propanenitrile]
IC50 (PI3Kα): > 20 nM

Structure (SMILES): CC(C)(C#N)c1ccc(-c2n[nH]c3cnc4ccc(-c5cccc(Nc6ccncc6)c5)cc4c23)cc1 [Compound 1121, 2-methyl-2-(4-(8-(3-(pyridin-4-ylamino)phenyl)-3H-pyrazolo[3,4-c]quinolin-1-yl)phenyl)propanenitrile]
IC50 (PI3Kα): > 20 nM
IC50 (MELK): 12 to 20 nM
IC50 (PDGFRα(D842V)): > 100 nM
inhibition at 1 µM (TRKC): > 97%
inhibition at 1 µM (PIM-1): > 95%

Structure (SMILES): CN[C@@H]1C[C@H]2O[C@@](C)([C@@H]1OC)n1c3ccccc3c3c4c(c5c6ccccc6n2c5c31)C(=O)NC4 [staurosporine]
EC50 [1]: 7 nM

From patent US20110212053A1, “PHOSPHATIDYLINOSITOL 3 KINASE INHIBITORS” (priority 2008, published 2011)
